# Source: patent publication US7851487B2, “Use of tetrahydropyridines in the treatment of central nervous system disorders” (The Research Foundation of State University of New York, priority 2006, dated 2010)
# Assays:
# [1] = biological target: T1, Serotonin transporter (SERT) (Homo sapiens, UniProt P31645); test: Radioligand binding, Serotonin transporter (SERT) ([3H]Paroxetine)
# T1 construct: host or cells: HEK-293 cells
# Procedure: (§1) The assays utilized human neuroreceptors and were performed under the experimental parameters set forth in Table 2 using standard techniques.
# (§2) For Table 3, IC50 values were determined by non-linear, least squares regression analysis using Data Analysis Toolbox™ (MDL Information Systems, San Leandro, Calif., USA). Inhibition constants (KI) were calculated using the equation of Cheng and Prusoff (Cheng, Y., et al. Biochem. Pharmacol. 22:3099-3108, 1973) using the observed IC50 of the tested compound, the concentration of radioligand employed in the assay, and the values for the KD of the ligand. The Hill coefficient (nH), defining the slope of the competitive binding curve, was calculated using the Data Analysis Toolbox™. Biochemical assay results are presented as the percent inhibition of specific binding or activity unless indicated otherwise. The experiments summarized in Table 3 utilized human dopamine D1, D2 s, D21, D3, D4.2, D4.4, serotonin 5HT1A, 5HT2A, 5HT2C, 5HT6, 5HT7, dopamine transporter (DAT), serotonin transporter (SERT) and the norepinephrine transporter (NET), as indicated in Table 3.
# ckr mouse = test: Prepulse inhibition (PPI) of the startle reflex in ckr mice; assay type: in vivo; settings: 10 mg/kg
# Procedure: To obtain the ckr mouse model presented in this Example, a representative compound 2 as set forth in Example 3 was used to investigate a standard measure of sensorimotor gating of the startle reflex. Sensorimotor gating of the startle reflex was assessed via measures of prepulse inhibition (PPI), which is the reduction in startle magnitude when the startling stimulus is preceded immediately by a weak prepulse. This measurement is valuable because the relative loss of PPI has been established in inherited neurodevelopmental disorders, such as schizophrenia in humans, as well as in rats after treatment with certain classes of drugs, including serotonin (5-HT) agonists. In animal models, the PPI test is considered to have good face, predictive and construct validity for sensorimotor gating deficits in schizophrenia.
# A stock solution of compound 2 was dissolved in DMSO, and then diluted to 10 mg/10 ml with distilled water such that the final concentration of DMSO was 0.5%. […]
# Startle reactivity was measured using a startle chamber (SR-LAB, San Diego Instruments, San Diego, Calif.). […]
# The protocol for measuring PPI was adapted from known techniques. […] The startle response was recorded as the average movement detected over 65 ms following the pulse. […]
# The startle amplitude was measured as the average startle response for the pulse-alone trials. […]
# [2] = biological target: T2, Norepinephrine transporter (NET) (Homo sapiens, UniProt P23975); test: Radioligand binding, Norepinephrine transporter (NET) ([125I]RTI-55)
# T2 construct: host or cells: MDCK cells
# Procedure: as §1, §2
# Serotonin 5HT6 = biological target: T3, Serotonin 5HT6 (Homo sapiens, UniProt P50406); test: Radioligand binding, Serotonin 5HT6 ([3H]LSD)
# T3 construct: host or cells: HeLa cells
# Procedure: as §1, §2
# Dopamine D3 = Dopamine D3 (Homo sapiens, UniProt P35462); test: Radioligand binding, Dopamine D3; settings: Dopamine D3, 10 μM; read-out: Percentage Inhibition
# Procedure: as §1, §2
# T2 sequence (P23975 whole entry): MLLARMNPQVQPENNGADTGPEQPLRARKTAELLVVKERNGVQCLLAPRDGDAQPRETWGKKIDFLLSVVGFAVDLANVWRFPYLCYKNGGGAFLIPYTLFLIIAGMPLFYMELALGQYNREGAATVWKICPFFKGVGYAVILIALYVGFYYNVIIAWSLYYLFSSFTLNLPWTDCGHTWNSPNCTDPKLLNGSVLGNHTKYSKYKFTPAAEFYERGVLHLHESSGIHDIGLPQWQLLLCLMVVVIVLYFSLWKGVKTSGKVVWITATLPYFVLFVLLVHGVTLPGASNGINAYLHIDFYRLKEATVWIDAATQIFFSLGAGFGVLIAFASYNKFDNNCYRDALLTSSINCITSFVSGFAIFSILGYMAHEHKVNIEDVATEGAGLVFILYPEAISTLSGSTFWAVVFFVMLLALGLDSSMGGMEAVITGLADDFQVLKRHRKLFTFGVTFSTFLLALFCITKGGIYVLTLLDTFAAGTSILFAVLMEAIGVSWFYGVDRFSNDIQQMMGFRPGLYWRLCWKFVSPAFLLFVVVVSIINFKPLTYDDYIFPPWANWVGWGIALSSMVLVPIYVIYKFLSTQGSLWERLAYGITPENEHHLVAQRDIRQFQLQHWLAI
# T3 sequence (P50406 whole entry): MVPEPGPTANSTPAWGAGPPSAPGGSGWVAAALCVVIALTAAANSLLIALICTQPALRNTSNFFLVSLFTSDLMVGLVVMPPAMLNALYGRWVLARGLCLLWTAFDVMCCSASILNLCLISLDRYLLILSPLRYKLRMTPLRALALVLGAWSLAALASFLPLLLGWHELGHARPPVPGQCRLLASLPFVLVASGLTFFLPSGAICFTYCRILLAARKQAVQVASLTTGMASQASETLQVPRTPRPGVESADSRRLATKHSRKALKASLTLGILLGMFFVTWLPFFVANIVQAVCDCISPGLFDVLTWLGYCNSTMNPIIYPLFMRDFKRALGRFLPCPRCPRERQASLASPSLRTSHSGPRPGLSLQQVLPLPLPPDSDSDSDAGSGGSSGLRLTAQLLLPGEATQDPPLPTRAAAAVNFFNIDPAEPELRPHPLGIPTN
# T1 sequence (P31645 whole entry): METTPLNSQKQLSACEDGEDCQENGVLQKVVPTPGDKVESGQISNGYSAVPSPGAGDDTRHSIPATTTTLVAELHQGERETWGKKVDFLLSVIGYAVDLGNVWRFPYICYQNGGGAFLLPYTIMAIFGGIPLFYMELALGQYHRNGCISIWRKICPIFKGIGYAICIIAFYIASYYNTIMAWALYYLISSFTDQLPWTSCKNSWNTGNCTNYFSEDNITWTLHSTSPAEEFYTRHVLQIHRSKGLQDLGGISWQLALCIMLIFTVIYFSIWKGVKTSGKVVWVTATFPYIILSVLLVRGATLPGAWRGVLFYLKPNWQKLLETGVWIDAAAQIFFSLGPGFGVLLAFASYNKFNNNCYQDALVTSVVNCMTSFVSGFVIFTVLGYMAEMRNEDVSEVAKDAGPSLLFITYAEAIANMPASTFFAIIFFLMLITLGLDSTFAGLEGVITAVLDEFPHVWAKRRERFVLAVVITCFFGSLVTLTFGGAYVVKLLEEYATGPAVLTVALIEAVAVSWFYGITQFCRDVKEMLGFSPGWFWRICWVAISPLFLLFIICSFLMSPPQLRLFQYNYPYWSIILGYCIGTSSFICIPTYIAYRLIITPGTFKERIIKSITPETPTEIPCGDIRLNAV
# Sequence of Dopamine D3 (P35462 whole entry): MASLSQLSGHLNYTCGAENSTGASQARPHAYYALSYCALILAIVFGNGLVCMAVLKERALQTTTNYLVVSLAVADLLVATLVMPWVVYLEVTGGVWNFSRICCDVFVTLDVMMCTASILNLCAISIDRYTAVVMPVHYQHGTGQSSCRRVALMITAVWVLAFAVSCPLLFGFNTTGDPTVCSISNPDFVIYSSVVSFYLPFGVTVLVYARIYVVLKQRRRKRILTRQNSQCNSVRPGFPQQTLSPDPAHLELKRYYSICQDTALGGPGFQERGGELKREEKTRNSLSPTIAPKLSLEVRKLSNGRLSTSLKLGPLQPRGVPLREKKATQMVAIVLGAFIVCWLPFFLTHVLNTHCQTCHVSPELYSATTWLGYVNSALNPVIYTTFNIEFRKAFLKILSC
compound,measurement,setting,value
COC(=O)[C@@H](c1ccc(-c2ccccc2)cc1)[C@H]1C=CCCN1 [Compound 2],IC50,[1],14.3 µM
same,Ki,[1],2.33 µM
same,inhibition at 10 µM,"[1]; Serotonin transporter (SERT), 10 μM, read-out: Percentage Inhibition",48%
same,inhibition at 30 µM,"[1]; Serotonin transporter (SERT), 30 μM, read-out: Percentage Inhibition",70%
same,nH,"[1]; Serotonin transporter (SERT), Hill coefficient",1.24
same,PPI over the control across all pre-pulse intensities,ckr mouse,trend of increased PPI
same,IC50,[2],10 µM
same,Ki,[2],9.94 µM
same,inhibition at 10 µM,"[2]; Norepinephrine transporter (NET), 10 μM, read-out: Percentage Inhibition",51%
same,nH,"[2]; Norepinephrine transporter (NET), Hill coefficient",1.1
same,IC50,Serotonin 5HT6,94.5 µM
same,Ki,Serotonin 5HT6,43.9 µM
same,inhibition at 100 µM,"Serotonin 5HT6; Serotonin 5HT6, 100 μM, read-out: Percentage Inhibition",53%
same,nH,"Serotonin 5HT6; Serotonin 5HT6, Hill coefficient",1.12
same,inhibition at 10 µM,Dopamine D3,15%
